Assay results from ChEMBL document CHEMBL3301361, “Experimental in vitro DMPK and physicochemical data on a set of publicly disclosed compounds”.
Converted amounts (≈) assume the structure as drawn.

Key:
in vitro [1] = conditions: human
in vitro [2] = conditions: hepatocytes
physchem [3] = conditions: pH 7.4 buffer
physchem [4] = conditions: octan-1-ol/water, pH 7.4, LogD7.4

Row | Structure (SMILES) | microsomal CLint (in vitro [1]; microsomes) | hepatocyte CLint (in vitro [2]) | solubility thermodynamic (physchem [3]) | logD (physchem [4]) | microsomal CLint (in vitro [1]; liver microsomes)
1 | CS(=O)(=O)c1ccc([C@H](CC2CCCC2)C(=O)Nc2nccs2)cc1 | 43.6 µL/min/mg | 35.5 µL/min/1e6 cells | 5.8 µM (≈ 2.2 µg/mL) | 3.88 | –
2 | Oc1ncnc2c1c(-c1ccccc1)cn2-c1ccc(Br)cc1 | – | 52.5 µL/min/1e6 cells | 1.6 µM (≈ 0.586 µg/mL) | – | 60.3 µL/min/mg
3 | Cc1cc(C)nc(SCC(=O)Nc2cc(C)on2)n1 | – | 141 µL/min/1e6 cells | – | 1.52 | > 150 µL/min/mg
4 | CCN(CC)CCn1c2ccccc2c2cnc(N)c(C#N)c21 | 71 µL/min/mg | 77 µL/min/1e6 cells | 58.9 µM (≈ 18.1 µg/mL) | 2.7 | –
5 | Cc1cc(CN2CCc3ccccc3C2C(=O)Nc2ccc(Cl)cc2Cl)ccc1OCC(=O)O (configuration not stated) | 15 µL/min/mg | 20 µL/min/1e6 cells | 166 µM (≈ 82.9 µg/mL) | 2.63 | –
6 | CCNC(=O)c1cnc(N2CCN(C3CCN(Cc4ccc(Cl)cc4F)CC3)[C@@H](CC)C2)c(Cl)c1 | 11 µL/min/mg | 38 µL/min/1e6 cells | 91.2 µM (≈ 47.7 µg/mL) | – | –
7 | O=c1[nH]c2c(O)ccc([C@@H](O)CNCCSCCCNCCc3cccc(C(F)(F)F)c3)c2s1 | – | 6 µL/min/1e6 cells | – | 1.21 | 13 µL/min/mg
8 | Cc1ccc(S(=O)(=O)Nc2c(C(=O)N(C)C3CCCCC3)c(C)nn2-c2ccccc2)cc1 | – | 21 µL/min/1e6 cells | – | 1.69 | 53 µL/min/mg
9 | Cc1ccc(S(=O)(=O)Nc2c(C(=O)NC3CCCCC3C)cnn2-c2ccccc2)cc1 (configuration not stated) | – | 5 µL/min/1e6 cells | – | 1.34 | 59 µL/min/mg
10 | Cc1ccc(S(=O)(=O)Nc2c(C(=O)N[C@@H](C)C(C)(C)C)c(C)nn2C2CCCCC2)cc1 | 33 µL/min/mg | 8 µL/min/1e6 cells | 871 µM (≈ 401 µg/mL) | 1.97 | –
11 | CN1CCC(Oc2cccc3ncnc(Nc4ccc(OCc5ccccn5)c(Cl)c4)c23)CC1 | – | 11 µL/min/1e6 cells | 1.5 µM (≈ 0.714 µg/mL) | – | 22 µL/min/mg
12 | O=c1[nH]c2c(O)ccc([C@@H](O)CNCCc3ccc(CNCCc4ccccc4F)cc3)c2s1 | 22 µL/min/mg | 14 µL/min/1e6 cells | – | 1.3 | –
13 | Cc1cccc2c(CCNCc3cccc(CCNC[C@H](O)c4ccc(O)c5[nH]c(=O)sc45)c3)c[nH]c12 | – | 24 µL/min/1e6 cells | – | 1.13 | 16 µL/min/mg
14 | O=c1[nH]c2c(O)ccc([C@@H](O)CNCCc3ccccc3CNCCc3ccccc3F)c2s1 | 27.5 µL/min/mg | 107 µL/min/1e6 cells | – | 1.58 | –
15 | COc1ccc(CNCc2cccc(CCNC[C@H](O)c3ccc(O)c4[nH]c(=O)sc34)c2)cc1 | – | 13 µL/min/1e6 cells | – | 0.86 | 62 µL/min/mg
16 | N[C@@H]1CCCN(c2c(/C=C3\SC(=O)NC3=O)cccc2-c2ccncc2)C1 | – | 8.91 µL/min/1e6 cells | – | 1.56 | 8.51 µL/min/mg
17 | N#CC1(NC(=O)[C@@H]2CCCC[C@H]2C(=O)N2CCc3[nH]c4ccc(F)cc4c3C2)CC1 | – | 41.4 µL/min/1e6 cells | 525 µM (≈ 214 µg/mL) | – | 12.5 µL/min/mg
18 | CC[C@@H](Nc1c(Nc2cccc(C(=O)N(C)C)c2O)c(=O)c1=O)c1ccccc1 | – | 65 µL/min/1e6 cells | 646 µM (≈ 254 µg/mL) | 2.14 | < 3 µL/min/mg
19 | Cn1c(-c2ccccc2C(F)(F)F)nnc1C12CCC(c3noc(-c4ccc(F)cc4)n3)(CC1)CC2 | – | 7.94 µL/min/1e6 cells | 0.9 µM (≈ 0.448 µg/mL) | – | < 3 µL/min/mg
20 | COc1c(Nc2ccc(S(C)(=O)=O)nc2C)ncnc1OC1CCN(C(=O)OC(C)C)CC1 [ADP-597] | 19.9 µL/min/mg | 6.31 µL/min/1e6 cells | – | 2.4 | –
21 | O=C(Nc1c[nH]nc1-c1nc2cc(CN3CCOCC3)ccc2[nH]1)NC1CC1 [AT-9283] | – | < 3 µL/min/1e6 cells | – | 2.3 | 8.32 µL/min/mg
22 | Cn1c(=O)c(Oc2ccc(F)cc2F)cc2cnc(NC(CCO)CCO)nc21 [PAMAPIMOD] | 4.57 µL/min/mg | < 3 µL/min/1e6 cells | – | 1.5 | –
23 | Cc1cc(CCCOc2c(C)cc(-c3noc(C(F)(F)F)n3)cc2C)on1 [PLECONARIL] | – | 13.5 µL/min/1e6 cells | – | 3.63 | 14.4 µL/min/mg
24 | Nc1c(C(=O)c2cccc(OC[C@@H](O)CO)c2)cnn1-c1ccc(F)cc1 [RO-3201195] | < 3 µL/min/mg | < 3 µL/min/1e6 cells | – | 1.91 | –

More lines, now with the values ahead:

Row | microsomal CLint (in vitro [1]; microsomes) | hepatocyte CLint (in vitro [2]) | solubility thermodynamic (physchem [3]) | logD (physchem [4]) | microsomal CLint (in vitro [1]; liver microsomes) | Structure (SMILES)
25 | 50.1 µL/min/mg | 21.4 µL/min/1e6 cells | 1510 µM (≈ 341 µg/mL) | – | – | Cc1nc2ccccn2c1-c1ccnc(N)n1
26 | 25 µL/min/mg | 72 µL/min/1e6 cells | 1510 µM (≈ 650 µg/mL) | – | – | O=C(CCOCCc1ccccc1)NCCNCCc1ccc(O)c2nc(O)sc12
27 | – | 31.6 µL/min/1e6 cells | – | 1.8 | 6.61 µL/min/mg | COc1cc(-c2ccc(Nc3ccccc3C(=O)O)c(OC)c2)ccc1Nc1ccccc1C(=O)O
28 | – | > 150 µL/min/1e6 cells | 22.4 µM (≈ 6.39 µg/mL) | 2.13 | 5 µL/min/mg | Cc1c(C(=O)Nc2ccccc2)sc2ncnc(O)c12
29 | 16 µL/min/mg | 39 µL/min/1e6 cells | 31.6 µM (≈ 13.4 µg/mL) | 2.13 | – | C[C@H]1C[C@@H](NS(=O)(=O)c2cc(Br)ccc2Br)CN1C#N
30 | – | 43 µL/min/1e6 cells | – | 1.21 | 35 µL/min/mg | CN(CCNC[C@H](O)c1ccc(O)c2[nH]c(=O)sc12)C(=O)CCOCCc1ccccc1
31 | – | > 150 µL/min/1e6 cells | 8.9 µM (≈ 3.35 µg/mL) | 2.9 | > 150 µL/min/mg | Cc1ccc(CNC(=O)C2CCCN2S(=O)(=O)c2ccc(F)cc2)cc1 (configuration not stated)
32 | – | 129 µL/min/1e6 cells | – | 0.99 | > 150 µL/min/mg | Cc1nc2ncnn2c(O)c1CCOC(=O)c1ccccc1F
33 | – | 19 µL/min/1e6 cells | – | 1.11 | 9 µL/min/mg | O=c1[nH]c2c(O)ccc([C@@H](O)CNCCc3cccc(CNCCCc4ccccc4)c3)c2s1
34 | – | 33 µL/min/1e6 cells | – | 1.52 | 45 µL/min/mg | COc1ccccc1CN(C)Cc1cccc(CCNC[C@H](O)c2ccc(O)c3[nH]c(=O)sc23)c1
35 | – | 17.4 µL/min/1e6 cells | – | 1.1 | 4.47 µL/min/mg | O=C(Nc1cccc(-c2nnn[nH]2)c1)c1cc(C(F)(F)F)cc2[nH]cnc12
36 | – | 13.5 µL/min/1e6 cells | 26.3 µM (≈ 13 µg/mL) | 2.45 | 30.2 µL/min/mg | CN1CCN(CCOc2n[nH]c3ncnc(Nc4ccc(OCc5ccccn5)c(Cl)c4)c23)CC1
37 | – | > 150 µL/min/1e6 cells | 372 µM (≈ 183 µg/mL) | – | > 150 µL/min/mg | Cc1ccc(CCOCCNS(=O)(=O)CCCNCCc2ccc(O)c3nc(O)sc23)cc1
38 | – | 115 µL/min/1e6 cells | – | 1.7 | > 150 µL/min/mg | COCC1=C(C(=O)OC(C)OC(=O)OC(C)C)N2C(=O)[C@@H](NC(=O)/C(=N\OC)c3csc(N)n3)[C@H]2SC1 (some centres not stated) [CEFPODOXIME PROXETIL]
39 | – | 46 µL/min/1e6 cells | – | 1.79 | < 3 µL/min/mg | Cc1nccn1CCC(C(N)=O)(c1ccccc1)c1ccccc1 [IMIDAFENACIN]
40 | – | 17 µL/min/1e6 cells | 1.3 µM (≈ 0.548 µg/mL) | – | 17.4 µL/min/mg | C[C@]1(O)C[C@@H](c2nc(-c3ccc4ccc(-c5ccccc5)nc4c3)c3c(N)nccn32)C1 [LINSITINIB]
41 | – | 69.2 µL/min/1e6 cells | – | 0.47 | 15.5 µL/min/mg | Cc1oc(=O)oc1CN1CCN(c2cc3c(cc2F)c(=O)c(C(=O)O)c2n3C(C)S2)CC1 (configuration not stated) [PRULIFLOXACIN]
